The values below come from patent publication US20240041042A1, “1-(PYRIDYL)-5-AZINYLPYRAZOLE DERIVATIVES, AND THEIR USE FOR CONTROL OF UNDESIRED PLANT GROWTH” (Bayer Aktiengesellschaft, priority 2020, published 2024).

Like-named read-outs stand apart in the source and are kept apart here.

Format in all cases: in vivo
Data set [1] deals with Oryza sativa (ORYSA). The settings on record: crop plant compatibility. The method in brief:
(§1)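 Foliar application at the one-leaf stage: WP/EC formulation, 0.5% additive, 600 l/ha water. Greenhouse-grown in sandy loam. Endpoint is visual % injury relative to untreated controls at about 3 weeks.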

Data set [2] relates to Triticum aestivum (TRZAS). The settings on record: crop plant compatibility, 20 g/ha, effect vs untreated controls. The procedure, abridged:
as §1

Data set [3] deals with Zea mays (ZEAMX). The settings on record: for Post-emergence action against ZEAMX in % (crop plant compatibility): 20 g/ha, effect in comparison to untreated controls; for Post-emergence action against ZEAMX in %: crop plant compatibility, effect vs untreated controls. The procedure, abridged: as §1
Data set [4] concerns Viola tricolor (VIOTR). The data set is described as follows: Post-emergence herbicidal action against VIOTR. The procedure, abridged:
(§2)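 Rates were 320 g/ha or below, applied as aqueous WP/EC spray with 0.5% additive (600 l/ha) onto one-leaf-stage plants. About 3 weeks later in the greenhouse, damage was scored visually against untreated plants on a 0–100% scale, where 100% means plants died.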

Data set [5] has as its system Setaria viridis (SETVI). The data set can be described thus: Post-emergence herbicidal action against SETVI. The settings on record: dosage 320 g/ha. The method in brief: as §2
Data set [6] deals with Digitaria sanguinalis (DIGSA). The data set can be described thus: Post-emergence herbicidal action against DIGSA. The settings on record: 320 g/ha, visual rating about 3 weeks after treatment. The procedure, abridged: as §2
Data set [7] concerns Echinochloa crus-galli (ECHCG). The data set can be described thus: Post-emergence herbicidal action against ECHCG. The settings on record: dosage 320 g/ha. The method in brief:
as §2

For data set [8], the system named is Amaranthus retroflexus (AMARE). The data set is described as follows: Post-emergence herbicidal action against AMARE. The procedure, abridged:
as §2

Data set [9] concerns Polygonum convolvulus (POLCO). The data set can be described thus: Post-emergence herbicidal action against POLCO. The settings on record: dosage 320 g/ha. The method in brief:
as §2

For data set [10], the system named is Pharbitis purpurea (PHBPU). The data set is described as follows: Post-emergence herbicidal action against PHBPU. The settings on record: dosage 320 g/ha. The method in brief: as §2
The subject of data set [11] is Verconica persica (VERPE). The data set is described as follows: Post-emergence herbicidal action against VERPE. The method in brief: as §2
The subject of data set [12] is Alopecurus myosuroides (ALOMY). The data set can be described thus: Post-emergence herbicidal action against ALOMY. The settings on record: visual rating about 3 weeks after treatment vs untreated controls (100% = plants have died, 0% = like control plants). The procedure, abridged:
as §2

In data set [13] the test system is Abutilon theophrasti (ABUTH). The data set is described as follows: Post-emergence herbicidal action against ABUTH. The settings on record: 320 g/ha, visual rating about 3 weeks after treatment vs untreated controls (100% = plants have died, 0% = like control plants). The procedure, abridged: as §2
Data set [14] deals with Lolium rigidum (LOLRI). The data set is described as follows: Post-emergence herbicidal action against LOLRI. The procedure, abridged:
as §2

The mark [15] stands for this setting: 20 g/ha, effect vs untreated controls.
[16] abbreviates: 80 g/ha, effect in comparison to untreated controls.
Where [17] appears, read: 320 g/ha, effect in comparison to untreated controls.

Turning to `COC(=O)C(C)NC(=O)C(C)Oc1nn(-c2ccccn2)c(-c2ccc(F)nc2)c1Br` (stereo not drawn) [Example I-286], the “Post-emergence action against ORYSA in %” value in data set [1] (setting [15]) amounted to 10%; in [1] (setting [16]) it was 20%; in [1] (setting [17]), 20%. Also, the “Post-emergence action against TRZAS in %” value in [2] was 20%. Also, the “Post-emergence action against ZEAMX in % (crop plant compatibility)” value in [3] is recorded as 10%. Also, the “Post-emergence action against ZEAMX in %” value in [3] (80 g/ha) is given as 20%. The “Post-emergence action against VIOTR in %” value in data set [4] (320 g/ha) is 80%. Moreover, the “Post-emergence action against SETVI in %” value in [5] is on record as 80%. The “Post-emergence action against DIGSA in %” value in data set [6] is 90%. The “Post-emergence action against ECHCG in %” value in [7] turned out to be 80%.
`O=C(O)COc1nn(-c2ncccc2F)c(-c2ccnc(F)c2)c1Br` [Example I-139]: the results for the “Post-emergence action against ORYSA in %” value in data set [1] (setting [15]), in data set [1] (setting [16]) and in [1] (setting [17]) were 0%, 0% and 10%, respectively. Further, the “Post-emergence action against TRZAS in %” value in data set [2] was 0%. Also, the “Post-emergence action against ZEAMX in % (crop plant compatibility)” value in data set [3] is on record as 0%. The “Post-emergence action against ZEAMX in %” value was 0% in [3] (80 g/ha) and 10% in [3] (320 g/ha). Also, the “Post-emergence action against AMARE in %” value came to 80% in data set [8] (80 g/ha, visual rating about 3 weeks after treatment vs untreated controls (100% = plants have died, 0% = like control plants)) and 90% in data set [8] (320 g/ha, visual rating about 3 weeks after treatment). Also, the “Post-emergence action against POLCO in %” value in data set [9] is given as 90%. Besides, the “Post-emergence action against VIOTR in %” value in data set [4] (80 g/ha) was found to be 80%; in [4] (320 g/ha), 90%. Moreover, the “Post-emergence action against PHBPU in %” value in data set [10] is 80%. Further, the “Post-emergence action against VERPE in %” value in data set [11] (320 g/ha, VERPE) stood at 90%; in data set [11] (dosage 80 g/ha) it was 80%. For the same molecule, in [6], the “Post-emergence action against DIGSA in %” value was found to be 90%. Moreover, in [7], the “Post-emergence action against ECHCG in %” value worked out at 80%. In addition, the “Post-emergence action against ALOMY in %” value in data set [12] (80 g/ha) and in [12] (320 g/ha) was 90% throughout. Also, the “Post-emergence action against ABUTH in %” value in data set [13] was 80%.
`COC(=O)[C@@H](C)Oc1nn(-c2ncccc2F)c(-c2ccnc(F)c2)c1Br` [Example I-134]: the “Post-emergence action against ORYSA in %” value worked out at 0% in data set [1] (setting [15]) and 10% in [1] (setting [16]). Also, in data set [2], the “Post-emergence action against TRZAS in %” value came to 20%. Besides, in [3], the “Post-emergence action against ZEAMX in % (crop plant compatibility)” value was determined as 10%. The “Post-emergence action against SETVI in %” value in data set [5] worked out at 80%. Also, the “Post-emergence action against VERPE in %” value in data set [11] (320 g/ha, VERPE) worked out at 80%; in data set [11] (dosage 80 g/ha), 80%. Besides, the “Post-emergence action against DIGSA in %” value in data set [6] is reported as 80%. Further, the “Post-emergence action against ECHCG in %” value in [7] is 80%. Also, the “Post-emergence action against LOLRI in %” value amounted to 80% in [14] (dosage 80 g/ha) and 90% in [14] (dosage 320 g/ha). Besides, in [12] (320 g/ha), the “Post-emergence action against ALOMY in %” value was found to be 90%.
